By IC50 is commonly meant the midpoint of a concentration-inhibition curve. The low end stands for higher potency, the high end for lower potency.

From patent US8835472B2, “Compounds, pharmaceutical compositions and uses thereof” (Boehringer Ingelheim International GmbH, priority 2010, dated 2014) come the findings set out here.

human ACC2, sequence (O00763 129-2458): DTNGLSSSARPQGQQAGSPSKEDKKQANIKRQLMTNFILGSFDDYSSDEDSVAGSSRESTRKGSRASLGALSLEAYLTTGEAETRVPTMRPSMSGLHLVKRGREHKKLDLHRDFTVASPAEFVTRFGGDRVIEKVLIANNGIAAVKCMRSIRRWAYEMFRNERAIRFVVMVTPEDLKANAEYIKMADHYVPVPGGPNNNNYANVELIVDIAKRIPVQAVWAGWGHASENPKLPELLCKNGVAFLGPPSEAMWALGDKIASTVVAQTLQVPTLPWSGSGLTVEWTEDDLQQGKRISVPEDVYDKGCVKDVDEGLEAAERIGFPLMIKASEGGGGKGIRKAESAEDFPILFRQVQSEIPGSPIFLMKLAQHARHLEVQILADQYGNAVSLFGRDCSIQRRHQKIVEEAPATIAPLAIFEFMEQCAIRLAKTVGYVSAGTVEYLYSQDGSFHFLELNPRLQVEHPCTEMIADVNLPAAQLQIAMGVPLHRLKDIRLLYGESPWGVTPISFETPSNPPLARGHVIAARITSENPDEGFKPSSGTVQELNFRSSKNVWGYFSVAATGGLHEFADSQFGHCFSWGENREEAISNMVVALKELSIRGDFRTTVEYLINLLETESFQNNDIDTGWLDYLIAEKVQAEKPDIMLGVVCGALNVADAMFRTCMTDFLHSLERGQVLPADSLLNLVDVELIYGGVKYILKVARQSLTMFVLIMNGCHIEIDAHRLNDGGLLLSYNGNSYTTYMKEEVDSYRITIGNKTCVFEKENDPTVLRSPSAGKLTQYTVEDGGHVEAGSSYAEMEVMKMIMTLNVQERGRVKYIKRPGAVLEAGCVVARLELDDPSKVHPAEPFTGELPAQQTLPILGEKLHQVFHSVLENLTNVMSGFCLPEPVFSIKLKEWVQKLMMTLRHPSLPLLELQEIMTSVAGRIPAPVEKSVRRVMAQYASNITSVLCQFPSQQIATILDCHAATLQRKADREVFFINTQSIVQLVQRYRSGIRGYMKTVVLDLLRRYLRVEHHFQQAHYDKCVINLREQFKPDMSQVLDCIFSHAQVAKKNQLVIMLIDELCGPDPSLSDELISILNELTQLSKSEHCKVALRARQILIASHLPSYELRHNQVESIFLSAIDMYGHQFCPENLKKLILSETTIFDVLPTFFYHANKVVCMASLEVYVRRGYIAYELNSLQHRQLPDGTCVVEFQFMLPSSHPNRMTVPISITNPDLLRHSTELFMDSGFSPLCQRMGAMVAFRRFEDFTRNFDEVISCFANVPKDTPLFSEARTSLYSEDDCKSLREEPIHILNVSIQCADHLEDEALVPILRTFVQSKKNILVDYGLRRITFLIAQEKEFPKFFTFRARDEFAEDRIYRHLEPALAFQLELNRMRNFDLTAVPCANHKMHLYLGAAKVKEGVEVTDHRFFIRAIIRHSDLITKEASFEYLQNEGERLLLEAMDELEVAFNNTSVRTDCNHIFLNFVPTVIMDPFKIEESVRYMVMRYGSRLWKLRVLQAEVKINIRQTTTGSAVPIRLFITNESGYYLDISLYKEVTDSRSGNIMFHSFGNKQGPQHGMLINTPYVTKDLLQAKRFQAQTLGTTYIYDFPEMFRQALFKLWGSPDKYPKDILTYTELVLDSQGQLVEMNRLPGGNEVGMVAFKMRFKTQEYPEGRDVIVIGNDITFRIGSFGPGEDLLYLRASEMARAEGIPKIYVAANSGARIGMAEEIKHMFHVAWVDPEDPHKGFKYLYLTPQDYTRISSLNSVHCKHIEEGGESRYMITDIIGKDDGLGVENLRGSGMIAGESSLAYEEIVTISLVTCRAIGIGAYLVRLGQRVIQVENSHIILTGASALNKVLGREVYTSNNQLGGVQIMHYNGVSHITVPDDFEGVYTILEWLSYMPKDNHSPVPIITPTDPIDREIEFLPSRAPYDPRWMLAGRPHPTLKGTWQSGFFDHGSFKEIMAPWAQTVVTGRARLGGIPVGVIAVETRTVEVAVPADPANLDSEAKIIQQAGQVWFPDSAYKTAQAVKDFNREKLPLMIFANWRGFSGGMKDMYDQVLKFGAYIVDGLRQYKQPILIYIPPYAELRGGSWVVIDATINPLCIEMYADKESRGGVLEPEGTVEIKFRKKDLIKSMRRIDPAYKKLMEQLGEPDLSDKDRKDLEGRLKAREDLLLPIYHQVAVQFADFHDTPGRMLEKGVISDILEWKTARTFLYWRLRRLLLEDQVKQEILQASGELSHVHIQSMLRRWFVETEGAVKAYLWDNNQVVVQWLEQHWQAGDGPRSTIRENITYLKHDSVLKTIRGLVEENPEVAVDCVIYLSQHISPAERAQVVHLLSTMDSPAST

This test concerns the target human ACC2 (Homo sapiens (Human), UniProt O00763). The experiment in a line: ACC2 assay, spectrophotometric 384 well assay (NADH-linked, coupled lactate dehydrogenase/pyruvate kinase reaction). The test is classed as biochemical. The note with it: hACC2 construct lacking the 128 N-terminal amino acids; 25° C., 340 nm over 15 minutes. In a few lines: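 N-terminally truncated human ACC2 (lacking 128 residues) expressed in insect cells; coupled PK/LDH read-out of ADP as NADH loss at 340 nm, 15 min, 25 °C. Tris pH 7.5 with citrate and KHCO3; 200 μM acetyl-CoA, 500 μM ATP, 1% DMSO.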
For the compound `CC(Cc1ccc(C#Cc2ccc(OC3CCC3)cc2)cc1)NC(=O)C1CC1` (centres unmarked) [Example 14.29], the midpoint of inhibition, the IC50, lay at 0.68 µM.

In turn, `CC(Cc1ccc(C#Cc2ccc(OC3CC3)cc2)cc1)NC(=O)C1CC1` (centres unmarked) [Example 14.30] returned an IC50 of 0.15 µM.

In the case of `CCCCOc1ccc(C#Cc2ccc(CC(C)NC(=O)C3CC3)cc2)cc1` (centres unmarked) [Example 14.31], the IC50 came out at 0.09 µM.

`CC(Cc1ccc(C#Cc2cccc(OC(C)C)c2)cc1)NC(=O)C1CC1` (centres unmarked) [Example 14.32] registered an IC50 of 0.71 µM.

Turning to `CCC(CC)Oc1ccc(C#Cc2ccc(CC(C)NC(=O)C3CC3)cc2)cc1` (centres unmarked) [Example 14.33], half-maximal inhibition (IC50) required 1.6 µM.

`CC(=O)NCCc1ccc(C#Cc2ccc(OCC(C)C)cc2)cc1` [Example 14.34] yielded an IC50 of 0.6 µM.

In the case of `CC(=O)NCCc1ccc(C#Cc2ccc(OC(C)C)cc2)cc1` [Example 14.35], the IC50 worked out at 0.73 µM.

With `CCOc1ccc(C#Cc2ccc(CCNC(C)=O)cc2)cn1` [Example 14.36], the IC50 turned out to be 2.3 µM.

`CCCOc1ccc(C#Cc2ccc(CCNC(C)=O)cc2)cc1` [Example 14.37] came in with an IC50 of 0.17 µM.

Compound `CC(=O)NCCc1ccc(C#Cc2ccc(Oc3ccccc3)nc2)cc1` [Example 14.38] gave an IC50 of 1.4 µM.

In the case of `CCCOc1cc(C#Cc2ccc(CCNC(C)=O)cc2)ccn1` [Example 14.39], the IC50 turned out to be 1.1 µM.

As to `CCCOc1ccc(C#Cc2ccc(CC(C)NC(=O)C3CC3)cc2)cc1` (centres unmarked) [Example 14.40], the IC50 came out at 0.08 µM.

Compound `CC(Cc1ccc(C#Cc2ccc(OC(C)C)cc2)cc1)NC(=O)C1CC1` (centres unmarked) [Example 14.41] had an IC50 of 0.44 µM.

In turn, `CC(Cc1ccc(C#Cc2ccc(Oc3ccccc3)nc2)cc1)NC(=O)C1CC1` (centres unmarked) [Example 14.43] yielded an IC50 of 0.36 µM.

In turn, `CCCOc1cc(C#Cc2ccc(CC(C)NC(=O)C3CC3)cc2)ccn1` (centres unmarked) [Example 14.44] had an IC50 of 0.36 µM.

With `CC(Cc1ccc(C#Cc2ccc(C(C)(C)C)cc2)cc1)NC(=O)C1CC1` (centres unmarked) [Example 14.45], the IC50 stood at 1 µM.

Turning to `CCC(C)Oc1ccc(C#Cc2ccc(CC(C)NC(=O)C3CC3)cc2)cc1` (centres unmarked) [Example 14.46], the IC50 amounted to 0.21 µM.

As for `CC(Cc1ccc(C#Cc2ccc(OC3CCCC3)cc2)cc1)NC(=O)C1CC1` (centres unmarked) [Example 14.47], the IC50 was 0.08 µM.

Regarding `CC(C)COc1ccc(C#Cc2ccc([C@H](C)NC(=O)C3CC3)cc2)cc1` [Example 14.48], the IC50 was 0.58 µM.

`CCOc1ccc(C#Cc2ccc([C@H](C)NC(=O)C3CC3)cc2)cc1` [Example 14.49] gave an IC50 of 0.32 µM.

`CC(=O)NC(C)Cc1ccc(C#Cc2ccc(OC(F)(F)F)cc2)cc1` (centres unmarked) [Example 14.50] came in with an IC50 of 1.5 µM.

In the case of `CCOc1ccc(C#Cc2ccc(C(C)NC(C)=O)cc2)cc1` (centres unmarked) [Example 14.51], the IC50 stood at 0.4 µM.

As to `CCOc1cccc(C#Cc2ccc(CC(C)NC(=O)C3CC3)cc2)c1` (centres unmarked) [Example 14.52], the midpoint of inhibition, the IC50, lay at 3.8 µM.

As to `CCOc1ccc(C#Cc2ccc(CCC(C)NC(C)=O)cc2)cn1` (centres unmarked) [Example 14.53], 0.28 µM corresponded to half-maximal inhibition (IC50).

As for `CC(=O)NC(C)CCc1ccc(C#Cc2cnc(OC3CCC3)nc2)cc1` (centres unmarked) [Example 14.54], the IC50 worked out at 0.24 µM.

With `CC(=O)NC(C)Cc1ccc(C#Cc2ccc3c(c2)OCC(C)(C)CO3)cc1` (centres unmarked) [Example 14.55], 0.12 µM corresponded to half-maximal inhibition (IC50).

Compound `CCOc1ccc(C#Cc2ccc(CCNC(=O)CC)cc2)cc1` [Example 16.1, N-(4-((4-Ethoxyphenyl)ethynyl)phenethyl)propionamide] registered an IC50 of 1.1 µM.

`CCOc1ccc(C#Cc2ccc(CN3CCCC3=O)cc2)cc1` [Example 16.2] registered an IC50 of 3.2 µM.

`CCOc1ccc(C#Cc2ccc(CCNC(C)=O)cc2)cc1` [Example 16.3]: the 50% inhibitory concentration (IC50) amounted to 0.43 µM.

For the compound `CCOc1ccc(C#Cc2ccc(CC(C)N(C)C(C)=O)cc2)cc1` (centres unmarked) [Example 18.1, N-{2-[4-(4-Ethoxy-phenylethynyl)-phenyl]-1-methyl-ethyl}-N-methyl-acetamide], it took 13.7 µM to reach half-maximal inhibition (IC50).

For `CCOc1ccc(C#Cc2ccc(CC(C)N(C)C(=O)CC)cc2)cc1` (centres unmarked) [Example 18.2], the IC50 came out at 4.4 µM.

As for `COCCOc1cc(C#Cc2ccc(CC(C)NC(C)=O)cc2)ccn1` (centres unmarked) [Example 20.1, N-(2-{4-[2-(2-Methoxy-ethoxy)-pyridin-4-ylethynyl]-phenyl}-1-methyl-ethyl)-acetamide; compound with trifluoro-acetic acid], the midpoint of inhibition, the IC50, lay at 0.98 µM.

`CCOc1cc(C#Cc2ccc(CC(C)NC(=O)N(C)C)cc2)ccn1` (centres unmarked) [Example 20.2] yielded an IC50 of 0.6 µM.

The compound `CC(=O)N[C@@H](C)Cc1ccc(C#Cc2ccc(OC(C)C)cc2)cc1` [Example 23.2] showed an IC50 of 0.13 µM.

As to `CC(=O)N[C@@H](C)Cc1ccc(C#Cc2ccc(OCC(C)C)cc2)cc1` [Example 23.3], the IC50 turned out to be 0.4 µM.

With `CC(=O)N[C@@H](C)Cc1ccc(C#Cc2ccc(C(C)(C)C)cc2)cc1` [Example 23.4], the IC50 worked out at 0.09 µM.

For `CCOc1ccc(C#Cc2ccc(C[C@H](C)NC(C)=O)cc2)cn1` [Example 23.5], the IC50 worked out at 0.08 µM.

Compound `CCCOc1ccc(C#Cc2ccc(C[C@H](C)NC(C)=O)cc2)cc1` [Example 23.6] yielded an IC50 of 0.07 µM.

For `CC(=O)NC(C)Cc1ccc(C#Cc2ccc(-c3cnco3)cc2)cc1` (centres unmarked) [Example 23.7], the concentration for half-maximal inhibition (IC50) stood at 1.6 µM.

As for `CCCOc1ccc(C#Cc2ccc(CC(C)NC(C)=O)cc2)nc1` (centres unmarked) [Example 23.8], the midpoint of inhibition, the IC50, lay at 0.18 µM.

For the compound `CCC(C)Oc1ccc(C#Cc2ccc(CC(C)NC(C)=O)cc2)cc1` (centres unmarked) [Example 23.9], the IC50 was 0.14 µM.

`CSc1ccc(C#Cc2ccc(CC(C)NC(C)=O)cc2)cc1` (centres unmarked) [Example 23.10] had an IC50 of 0.22 µM.

On to `CC(Cc1ccc(C#Cc2ccc(Oc3cncnc3)cc2)cc1)NC(=O)C1CC1` (centres unmarked) [Example 23.11], for which it took 1.4 µM to reach half-maximal inhibition (IC50).

`CC(=O)NC(C)Cc1ccc(C#Cc2ccc(OCC(C)C)cn2)cc1` (centres unmarked) [Example 23.12] had an IC50 of 0.65 µM.

`CCOc1ccc(C#Cc2ccc(CC(C)NC(C)=O)cc2)nc1` (centres unmarked) [Example 23.13] displayed an IC50 of 0.45 µM.

In turn, `CCCOc1ccc(C#Cc2ccc(C(C)(C)CNC(C)=O)cc2)nc1` [Example 23.14] displayed an IC50 of 0.65 µM.

`CC(=O)NC(C)(C)c1ccc(C#Cc2cnc(OC3CCC3)nc2)cc1` [Example 23.15]: the IC50 was determined as 21.5 µM.

In turn, `CCCOc1ccc(C#Cc2ccc(CC(C)NC(C)=O)cc2)cc1` (centres unmarked) [Example 24.1, N-{1-Methyl-2-[4-(4-propoxy-phenylethynyl)-phenyl]-ethyl}-acetamide] yielded an IC50 of 0.07 µM.

For the compound `CCOc1ccc(C#Cc2ccc(C[C@H](C)NC(C)=O)cc2)cc1` [Example 24.2], the IC50 worked out at 0.08 µM.

Take `CC(=O)N[C@@H](C)Cc1ccc(C#Cc2ccc(Oc3ccccc3)nc2)cc1` [Example 24.3]: the midpoint of inhibition, the IC50, lay at 0.17 µM.

Compound `CC(=O)NC(C)Cc1ccc(C#Cc2cnc(OC3CCCC3)nc2)cc1` (centres unmarked) [Example 27.1, N-{2-[4-(2-Cyclopentyloxy-pyrimidin-5-ylethynyl)-phenyl]-1-methyl-ethyl}-acetamide] yielded an IC50 of 0.2 µM.

For the compound `CCOc1ccc(C#Cc2ccc(CC(COC)NC(C)=O)cc2)cc1` (centres unmarked) [Example 27.2], the IC50 stood at 1.2 µM.

Turning to `CCOc1ccc(C#Cc2ccc(CC(CC)NC(C)=O)cc2)cc1` (centres unmarked) [Example 27.3], it took 0.15 µM to reach half-maximal inhibition (IC50).

Compound `CCOc1ccc(C#Cc2ccc(C(C)NC(=O)OC)cc2)cc1` (centres unmarked) [Example 29.1, {1-[4-(4-Ethoxy-phenylethynyl)-phenyl]ethyl}-carbamic acid methyl ester] displayed an IC50 of 13.1 µM.

As for `CCOc1ccc(C#Cc2ccc(CC(C)NC(=O)OC)cc2)cc1` (centres unmarked) [Example 29.2], 0.31 µM corresponded to half-maximal inhibition (IC50).

`CC(=O)NC(C)Cc1ccc(C#Cc2ccc(OCc3nccs3)cc2)cc1` (centres unmarked) [Example 31.1, N-(1-Methyl-2-(4-(4-(thiazol-2-ylmethoxy)-phenylethynyl)-phenyl)-ethyl)-acetamide] registered an IC50 of 1.7 µM.

In the case of `CC(=O)NC(C)Cc1ccc(C#Cc2ccc(OC3COC3)cc2)cc1` (centres unmarked) [Example 31.2], the IC50 came to 0.2 µM.

`CCCOc1ccc(C#Cc2ccc(C(C)CNC(C)=O)cc2)cc1` (centres unmarked) [Example 32.1, N-{2-[4-(4-Propoxy-phenylethynyl)-phenyl]-propyl}-acetamide] gave a half-maximal inhibitory concentration (IC50) of 0.07 µM.

Compound `CCCOc1ccc(C#Cc2ccc(C(C)CNC(=O)C3CC3)cc2)cc1` (centres unmarked) [Example 32.2] gave an IC50 of 0.2 µM.

`CC(=O)NCC(C)c1ccc(C#Cc2cnc(OC3CCC3)nc2)cc1` (centres unmarked) [Example 32.3] showed an IC50 of 0.07 µM.

For the compound `CC(CNC(=O)C1CC1)c1ccc(C#Cc2cnc(OC3CCC3)nc2)cc1` (centres unmarked) [Example 32.4], the midpoint of inhibition, the IC50, lay at 0.81 µM.

`CCCOc1ccc(C#Cc2ccc(C(C)CNC(=O)N(C)C)cc2)cc1` (centres unmarked) [Example 33.1, 1,1-Dimethyl-3-{2-[4-(4-propoxy-phenylethynyl)-phenyl]-propyl}-urea] returned an IC50 of 0.16 µM.

Turning to `CC(CNC(=O)N(C)C)c1ccc(C#Cc2cnc(OC3CCC3)nc2)cc1` (centres unmarked) [Example 33.2], the IC50 was found to be 0.13 µM.

`CCNC(=O)NCC(C)c1ccc(C#Cc2cnc(OC3CCC3)nc2)cc1` (centres unmarked) [Example 33.3] displayed an IC50 of 2.3 µM.

With `COC(=O)NCC(C)c1ccc(C#Cc2cnc(OC3CCC3)nc2)cc1` (centres unmarked) [Example 33.4], the IC50 came to 0.52 µM.

With `CCCOc1ccc(C#Cc2ccc(CC(C)(C)NC(C)=O)cc2)cc1` [Example 35.1, N-(1,1-Dimethyl-2-(4-(4-propoxyphenylethynyl)-phenyl)-ethyl)-acetamide], 0.07 µM corresponded to half-maximal inhibition (IC50).

`CCCOc1ccc(C#Cc2ccc(CC(C)(C)NC(=O)C3CC3)cc2)cc1` [Example 35.2] returned an IC50 of 0.33 µM.

Compound `CCOc1ccc(C#Cc2ccc(CCNC(C)=O)cn2)cc1` [Example 35.3] came in with an IC50 of 26.9 µM.
